From PubChem BioAssay (NCI)
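Protocol summary: plate cells (96-well), add compound at 5 concentrations, incubate 48 h, interpolate endpoints linearly. The concentration for full growth arrest is given as TGI.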

Legend:
Assay in all cases: NCI tumour cell line growth inhibition, 48 h
MCF7 breast = test system: MCF7 breast
A549 NSCLC = test system: A549 NSCLC
HS 578T breast = test system: HS 578T breast
SF-268 CNS = test system: SF-268 CNS
SR leukemia = test system: SR leukemia
ACHN renal = test system: ACHN renal
A498 renal = test system: A498 renal
CCRF-CEM leukemia = test system: CCRF-CEM leukemia
MDA-MB-435 = test system: MDA-MB-435
HCT-116 colon = test system: HCT-116 colon
MOLT-4 leukemia = test system: MOLT-4 leukemia
T-47D breast = test system: T-47D breast
SK-MEL-5 melanoma = test system: SK-MEL-5 melanoma
K-562 leukemia = test system: K-562 leukemia
SF-295 CNS = test system: SF-295 CNS
M14 melanoma = test system: M14 melanoma
BT-549 breast = test system: BT-549 breast
TK-10 renal = test system: TK-10 renal
SW-620 colon = test system: SW-620 colon
HT29 colon = test system: HT29 colon
NCI-H226 lung = test system: NCI-H226 lung
MDA-N = test system: MDA-N
SK-OV-3 ovarian = test system: SK-OV-3 ovarian
RPMI-8226 leukemia = test system: RPMI-8226 leukemia
LOX IMVI melanoma = test system: LOX IMVI melanoma
SN12C renal = test system: SN12C renal
PC-3 prostate = test system: PC-3 prostate
CAKI-1 renal = test system: CAKI-1 renal
MDA-MB-231 breast = test system: MDA-MB-231 breast
SK-MEL-28 melanoma = test system: SK-MEL-28 melanoma
HCT-15 colon = test system: HCT-15 colon
SNB-75 CNS = test system: SNB-75 CNS
OVCAR-8 ovarian = test system: OVCAR-8 ovarian
OVCAR-5 ovarian = test system: OVCAR-5 ovarian
NCI-H23 lung = test system: NCI-H23 lung
UO-31 renal = test system: UO-31 renal
OVCAR-4 ovarian = test system: OVCAR-4 ovarian
U251 CNS = test system: U251 CNS
COLO 205 colon = test system: COLO 205 colon
786-0 renal = test system: 786-0 renal
DU-145 prostate = test system: DU-145 prostate
UACC-257 melanoma = test system: UACC-257 melanoma
SF-539 CNS = test system: SF-539 CNS
SNB-19 CNS = test system: SNB-19 CNS
SK-MEL-2 melanoma = test system: SK-MEL-2 melanoma
NCI-H460 lung = test system: NCI-H460 lung
NCI/ADR-RES ovarian = test system: NCI/ADR-RES ovarian
OVCAR-3 ovarian = test system: OVCAR-3 ovarian
KM12 colon = test system: KM12 colon
IGROV1 ovarian = test system: IGROV1 ovarian
UACC-62 melanoma = test system: UACC-62 melanoma
EKVX NSCLC = test system: EKVX NSCLC
NCI-H522 lung = test system: NCI-H522 lung
HOP-62 NSCLC = test system: HOP-62 NSCLC
HL-60(TB) leukemia = test system: HL-60(TB) leukemia
HOP-92 NSCLC = test system: HOP-92 NSCLC
MALME-3M melanoma = test system: MALME-3M melanoma
RXF 393 renal = test system: RXF 393 renal
HCC-2998 colon = test system: HCC-2998 colon

Measured: TGI

Nc1ncc2ncn(C3CCC(CO)O3)c2n1 (configuration not stated)
not listed: HOP-92 NSCLC | MALME-3M melanoma | RXF 393 renal | HCC-2998 colon
> 100 µM: all other assays above

CC(C)OP(=O)(OC(C)C)C(C)(C)O
not listed: A498 renal | NCI-H460 lung
> 100 µM: all other assays above
